Results on three compounds are retold here after patent US10093629B2, “Heterocyclic compounds and their use as retinoid-related orphan receptor (ROR) gamma-T inhibitors” (Takeda Pharmaceutical Company Limited, priority 2014, dated 2018).

The target in assay [1] is T1, RORγt (Homo sapiens, UniProt P51449).
T1 sequence (P51449 1-497 isoform P51449-2): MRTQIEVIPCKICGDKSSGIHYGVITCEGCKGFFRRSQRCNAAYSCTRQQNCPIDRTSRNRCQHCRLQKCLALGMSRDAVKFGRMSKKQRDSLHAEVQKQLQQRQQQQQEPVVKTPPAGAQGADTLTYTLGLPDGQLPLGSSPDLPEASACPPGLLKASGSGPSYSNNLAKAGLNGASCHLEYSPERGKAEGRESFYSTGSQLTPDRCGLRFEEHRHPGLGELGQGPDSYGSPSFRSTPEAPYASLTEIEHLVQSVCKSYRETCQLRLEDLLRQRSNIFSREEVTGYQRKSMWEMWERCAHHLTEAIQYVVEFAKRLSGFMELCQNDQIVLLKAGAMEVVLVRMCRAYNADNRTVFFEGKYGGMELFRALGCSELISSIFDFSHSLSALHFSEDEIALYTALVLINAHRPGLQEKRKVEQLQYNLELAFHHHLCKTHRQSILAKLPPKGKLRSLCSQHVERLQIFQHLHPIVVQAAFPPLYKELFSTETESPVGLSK
In words: Jurkat reporter test (human IL-17 ROR response element luciferase, RORγt vector). The following applies: Jurkat, test compound 3 μM; Jurkat cells; read-out: luminescence level inhibitory rate at test compound 3 μM. The format is cell-based. Put shortly: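 Luminescence (Bright-Glo, 10 min, RT) was measured after overnight compound treatment of electroporated Jurkat cells (1350 V, 10 ms interval, 3 pulses). The reaction medium was RPMI with 10% lipid-reduced FCS, 10 mM HEPES (pH 7.5) and 5 μM lovastatin.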

Assay [2] deals with IL-23-induced mouse psoriasis model. In words: IL-23-induced mouse psoriasis model. The format is in vivo. To be noted: Balb/c mice, versus the negative control group; for percent inhibition of IL-17A expression: ear tissue. The protocol:
Effect in an IL-23-Induced Mouse Psoriasis Model
Mouse IL-23 (500 ng/15 μL, R&D) or PBS (15 μL, negative control group) was administered intradermally in the ear of Balb/c mice (Charles River Japan, male, 7 weeks old) 5 times every other days. Seven hr after IL-23 administration at 8 days after the initial administration (final administration), the mice were anesthetized with isoflurane, and ear thickness was measured with calipers. After the ear thickness was measured, the ear was resected, tissue 8 mm in diameter was punched from an area centering on the IL-23 injection site, and the tissue was weighed. The punched ear tissue was cut in half, and one half was immersion-fixed in 10% neutral buffer formalin solution for use in histopathological evaluation. The other half was immersed in RNAlater (QIAGEN) for at least 18 hr for use in an evaluation of the IL-17A mRNA expression level. The test compound was suspended in 0.5% methylcellulose and administered orally twice daily on consecutive days from 30 min before the initial IL-23 administration to 30 min before the final IL-23 administration.
The change in ear thickness in this model was evaluated by calculating the difference in measured thickness between before IL-23 administration and 7 hr after the final IL-23 administration. In addition, the formalin-fixed tissue was embedded and sectioned, then stained with hematoxylin-eosin. The degree of acanthosis was then evaluated qualitatively by microscopy (classified with a score of 0 to 4). RNA extraction from the ear tissue and quantitative PCR were performed as follows. As described above, ear tissue treated with RNAlater (QIAGEN) was homogenized in 350 μL of RLT buffer (RNeasy mini kit, QIAGEN) and treated (55° C., 10 min) with Proteinase K (QIAGEN). Total RNA was then extracted according to the RNeasy mini kit protocol. The RNA thus obtained was reverse transcribed into cDNA using the High-Capacity RNA-to-cDNA kit (Applied Biosystems), and the expression of each gene was measured by real-time PCR (Viia7™, Applied Biosystems). The PCR buffer used was TaqMan Fast Advanced Master Mix (Applied Biosystems), and TaqMan Gene Expression Assays (Applied Biosystems) Mm00439618_m1 (IL-17A) and 4352341E (β-actin) were used to detect the genes. The IL-17A gene expression level was normalized to the β-actin gene expression level, and the percent inhibition of IL-17A gene expression with the test compound was then calculated.
The results (percent inhibition of ear thickness, acanthosis score and IL-17A gene expression with oral administration of the test compound) measured by the above-mentioned method are shown in Table 10.

The target of assay [3] is T1, RORγt. The assay is described as follows: RORγt binding test using fluorescent-labeled synthetic ligand (TR-FRET). The following applies: test compound 1 μM; read-out: binding inhibitory rate of fluorescent-labeled synthetic ligand to RORγt at test compound 1 μM. (TR-FRET usually uses a lanthanide donor and a delayed reading to cut background.)
Assay [4] relates to IL-17 production in human blood. The assay is described as follows: Effect on IL-17 production in human blood. The format is cell-based. To be noted: 72 h; 10 μM test compound; human peripheral blood, IL-23 and Dynabeads stimulation, 3 days; read-out: percent inhibition at 10 μM (IL-17 production). On the procedure:
Effect on IL-17 Production in Human Blood
The inhibitory effect of the test compound on IL-17 production in human blood was evaluated as follows. First, 150 μL of peripheral blood collected from healthy individuals using heparinized vacuum blood collection tubes was dispensed into each well of a 96-well plate (Corning), and 45 μL of RPMI 1640 medium (Gibco) containing 10% fetal bovine serum (FBS, Hyclone) and 30 μL of the test compound diluted with the medium were added to each well. The plate was then cultured for 30 min at 37° C. The cells were subsequently stimulated by adding 30 μL of 100 ng/mL human IL-23 (R&D) and 45 μL of Dynabeads Human (Invitrogen) to each well and culturing the plate for 3 days at 37° C. In wells without stimulation, 75 μL of RPMI 1640 medium containing 10% FBS was added instead of the IL-23 and Dynabeads solution. After culturing for 3 days, the culture supernatant was collected, and the amount of IL-17 in the supernatant was measured using an IL-17 ELISA kit (R&D).
The results (percent inhibition of IL-17 production with 10 μM of the test compound) measured by the above-mentioned method are shown in Table 8.

Assay [5] addresses T1, RORγt. In words: Cofactor recruitment test (Alpha Screen, biotinylated SRC-1 peptide). The format is biochemical. The following applies: test compound 1 μM; read-out: signal value inhibitory rate at test compound 1 μM. The protocol: Cofactor Recruitment Test
Cofactor recruitment test was performed by Alpha Screen (Histidine Detection Kit, PerkinElmer) method. First, a test compound was diluted with an assay buffer (50 mM Tris-HCl (pH 7.5), 50 mM KCl, 1 mM DTT, 0.1% BSA) and added to a 384 well plate by 5 μL. […] The mixture was stood in a dark place for 1 hr, and the signal value was measured by Envision (PerkinElmer).

A further assay relates to IL-17A gene expression. The assay is described as follows: Effect on IL-23-induced cytokine expression in mice. The format is in vivo, mouse. To be noted: 10 mg/kg oral, 30 min before and 8 hr after IL-23; ear of Balb/c mice; versus the negative control group. The protocol: Effect on IL-23-Induced Cytokine Expression in Mice
A mouse IL-23 solution (500 ng/10 μL, prepared by Takeda Pharmaceutical Company Limited) or PBS (10 μL, negative control group) was administered intradermally in the ear of Balb/c mice (Charles River Japan, male, 7 weeks old). Twenty-four hr after administration, the ear was resected under isoflurane anesthesia. The test compound was suspended in 0.5% methylcellulose and administered orally 30 min before and 8 hr after IL-23 administration.
RNA extraction from the ear tissue and quantitative PCR were performed as follows. Specifically, ear tissue 5 mm in diameter was punched from an area of the resected ear centering on the IL-23 injection site, and the tissue was immersed in RNAlater (QIAGEN) for at least 18 hr. The RNAlater-treated ear tissue was homogenized in 350 μL of RLT buffer (RNeasy mini kit, QIAGEN) and treated (55° C., 10 min) with Proteinase K (QIAGEN). Total RNA was then extracted according to the RNeasy mini kit protocol. The RNA thus obtained was then reverse transcribed into cDNA using the High-Capacity RNA-to-cDNA kit (Applied Biosystems), and the amount of each gene expressions was measured by real-time PCR (Viia7™, Applied Biosystems). The PCR buffer used was TaqMan Fast Advanced Master Mix (Applied Biosystems), and TaqMan Gene Expression Assays (Applied Biosystems) Mm00439618_m1 (IL-17A) and 4352341E (β-actin) were used for each gene detection. The IL-17A gene expression level was normalized to the β-actin gene expression level, and the percent inhibition of IL-17A gene expression with the test compound was then calculated.
The results (percent inhibition of IL-17A gene expression with oral administration of the test compound) measured by the above-mentioned method are shown in Table 9.

Regarding `COc1ccc2c(n1)CCN(C(=O)[C@H]1C[C@@H]1CC(=O)O)[C@H]2C(=O)Nc1cc(F)c2c(c1)CCC2(C)C` [Example 6, ((1R,2S)-2-(((5R)-5-((7-fluoro-1,1-dimethyl-2,3-dihydro-1H-inden-5-yl)carbamoyl)-2-methoxy-7,8-dihydro-1,6-naphthyridin-6(5H)-yl)carbonyl)cyclopropyl)acetic acid], at RORγt [1], the inhibition at 3 µM was 97%. Further, in assay [2] (10 mg/kg oral twice daily), the “percent inhibition of acanthosis score” value worked out at 39%, the “percent inhibition of ear thickness” value was 64% and the “percent inhibition of IL-17A expression” value worked out at 111%. Moreover, at RORγt [3], the inhibition at 1 µM was found to be 102%. For the same compound, the inhibition at 10 µM in assay [4] was 86.6%. Also, on RORγt [5], the inhibition at 1 µM amounted to 54%.
Take `COc1ccc2c(n1)CCN(C(=O)[C@H]1C[C@@H](C(=O)O)C1)[C@H]2C(=O)Nc1cc(F)c2c(c1)CCC2(C)C` [Example 10, cis-3-(((5R)-5-((7-fluoro-1,1-dimethyl-2,3-dihydro-1H-inden-5-yl)carbamoyl)-2-methoxy-7,8-dihydro-1,6-naphthyridin-6(5H)-yl)carbonyl)cyclobutanecarboxylic acid]: the “percent inhibition of IL-17A gene expression” value with IL-17A gene expression is 87%. In assay [2] (1 mg/kg oral twice daily), the “percent inhibition of acanthosis score” value turned out to be 47%, the “percent inhibition of ear thickness” value turned out to be 52% and the “percent inhibition of IL-17A expression” value was 91%. In addition, the inhibition at 10 µM in assay [4] is 89.7%.
On to `COCc1ccc2c(c1)CCN(C(=O)[C@H]1C[C@@H](CC(=O)O)C1)[C@H]2C(=O)Nc1cc(F)c2c(c1)CCC2(C)C` [Example 19, (cis-3-(((1R)-1-((7-fluoro-1,1-dimethyl-2,3-dihydro-1H-inden-5-yl)carbamoyl)-6-(methoxymethyl)-3,4-dihydroisoquinolin-2(1H)-yl)carbonyl)cyclobutyl)acetic acid], for which the inhibition at 3 µM at RORγt [1] was determined as 99%. In assay [2] (10 mg/kg oral twice daily), the “percent inhibition of acanthosis score” value was determined as 29%, the “percent inhibition of ear thickness” value was found to be 40% and the “percent inhibition of IL-17A expression” value worked out at 94%. The inhibition at 1 µM on RORγt [3] worked out at 101%. In addition, the inhibition at 10 µM in assay [4] worked out at 94.1%. Further, the inhibition at 1 µM on RORγt [5] turned out to be 82%.
